Source: patent publication US20090197878A1, “SUBSTITUTED BENZO[d][1,3]OXAZIN-2(4H)-ONES AND RELATED DERIVATIVES AND THEIR USES FOR MODULATING THE PROGESTERONE RECEPTOR” (Wyeth, priority 2008, published 2009)

What was measured:
[1] = system: alkaline phosphatase activity in T47D cells; test: Effects of progestins and antiprogestins on alkaline phosphatase activity in T47D cells; type: cell-based; settings: Homo sapiens; for IC50: antagonist mode in the presence of 1 nM progesterone, 24 hours
Description: The purpose of this example is to identify progestins or antiprogestins by determining a compound's effect on alkaline phosphatase activity in T47D cells.
A. Reagents: • Culture medium: Dulbecco's Modified Eagle Medium (DMEM):F12 (1:1) (GIBCO, BRL) supplemented with 5% (v/v) charcoal stripped fetal bovine serum (not heat-inactivated), 100 U/mL penicillin, 100 μg/mL streptomycin, and 2 mM of the GlutaMax® reagent (GIBCO, BRL). • Alkaline phosphatase assay buffer: • I. 0.1M Tris-HCl, pH 9.8, containing 0.2% Triton® X-100 reagent • II. 0.1M Tris-HCl, pH 9.8, containing 4 mM p-nitrophenyl phosphate (Sigma).
Frozen T47D cells are thawed in a 37° C. water bath and diluted to 280,000 cells/mL in culture medium. To each well in a 96-well plate (Falcon, Becton Dickinson Labware), was added 180 μL of diluted cell suspension. Twenty μL of reference or test compounds diluted in the culture medium is then added to each well. When testing for progestin antagonist activity, reference antiprogestins or test compounds are added in the presence of 1 nM progesterone. The cells are incubated at 37° C. in a 5% CO2/humidified atmosphere for 24 hours. For high throughput screening, one concentration of each compound will be tested at 0.3 μg/mL. Based on an average molecular weight of 300 g/mol for the compounds in the library, the concentration is approximately 1 μM. Compounds active in this assay can be tested in dose response assays to determine EC50 and IC50.
C. Alkaline Phosphatase Enzyme Assay: • At the end of treatment, the medium is removed from the plate. Fifty μL of assay buffer I is added to each well. The plates are shaken in a titer plate shaker for 15 minutes. Then 150 μL of assay buffer II is added to each well. Optical density measurements are taken at 5 minute intervals for 30 minutes at a test wavelength of 405 nm.
D. Analysis of Results: Analysis of Dose-Response Data • For reference and test compounds, a dose response curve is generated for dose (X-axis) vs. the rate of enzyme reaction (slope) (Y-axis). Square root-transformed data are used for analysis of variance and nonlinear dose response curve fitting for both agonist and antagonist modes. Huber weighting is used to down-weight the effects of outliers. EC50 or IC50 values are calculated from the retransformed values. JMP® software (SAS Institute, Inc.) is used for both one-way analysis of variance and non-linear dose response analysis in both single dose and dose response studies.
E. Reference Compounds • Progesterone and trimegestone are reference progestins and RU486 is the reference antiprogestin. All reference compounds are run in full dose response curves and the EC50 and IC50 values are calculated.

[2] = biological target: T1, progesterone receptor (PR) (Homo sapiens, UniProt P06401); test: Progesterone receptor whole cell competition binding assay using T47D cells; settings: intact T47D cells, 3 nM 3H-progesterone, 3 hours at 37° C.
T1 construct: in live, intact (whole) cells, using the human breast carcinoma T47D cell line; endogenous in cells; host or cells: T47D human breast carcinoma cells
T1 sequence (P06401 1-933): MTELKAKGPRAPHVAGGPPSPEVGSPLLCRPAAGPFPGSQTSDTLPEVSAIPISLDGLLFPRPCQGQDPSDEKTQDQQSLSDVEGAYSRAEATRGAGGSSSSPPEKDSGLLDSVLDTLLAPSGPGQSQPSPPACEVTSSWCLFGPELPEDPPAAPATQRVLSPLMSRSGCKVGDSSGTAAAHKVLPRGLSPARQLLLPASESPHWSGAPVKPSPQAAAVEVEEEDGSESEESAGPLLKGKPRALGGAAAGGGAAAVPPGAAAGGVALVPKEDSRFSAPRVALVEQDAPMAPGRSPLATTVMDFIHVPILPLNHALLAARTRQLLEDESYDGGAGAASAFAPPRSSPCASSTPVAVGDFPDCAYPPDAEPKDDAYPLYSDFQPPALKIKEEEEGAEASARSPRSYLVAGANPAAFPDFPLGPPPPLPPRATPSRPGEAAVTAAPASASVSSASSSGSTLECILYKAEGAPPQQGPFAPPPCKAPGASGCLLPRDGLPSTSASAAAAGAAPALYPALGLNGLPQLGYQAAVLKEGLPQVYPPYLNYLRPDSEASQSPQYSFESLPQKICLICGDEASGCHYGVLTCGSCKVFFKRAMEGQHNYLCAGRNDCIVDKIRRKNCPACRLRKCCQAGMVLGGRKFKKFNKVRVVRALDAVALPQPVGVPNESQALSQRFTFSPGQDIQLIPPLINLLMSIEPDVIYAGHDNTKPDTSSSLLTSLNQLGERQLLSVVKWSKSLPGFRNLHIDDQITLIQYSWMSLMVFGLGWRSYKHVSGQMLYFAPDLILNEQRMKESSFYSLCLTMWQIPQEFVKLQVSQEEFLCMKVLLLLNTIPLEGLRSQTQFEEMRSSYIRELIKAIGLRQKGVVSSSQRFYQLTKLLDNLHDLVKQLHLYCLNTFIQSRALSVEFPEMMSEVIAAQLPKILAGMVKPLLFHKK
Description: The purpose of this example is to evaluate the progesterone receptor (PR) binding activity of progestins or antiprogestins in live, intact (whole) cells, using the human breast carcinoma T47D cell line and ^3H-progesterone as the labeled ligand.
A. Reagents: • Culture medium: • (i) 5% RC which is phenol red free Dulbecco's Modified Eagles Medium (DMEM):F12 (1:1) (GIBCO, BRL) supplemented with 5% (v/v) charcoal stripped fetal bovine serum (not heat-inactivated), 100 U/mL penicillin, 100 μg/mL streptomycin, and 2 mM of the GlutaMax™ reagent (GIBCO, BRL) • (ii) 10% RC is 5% RC supplemented with 10% (v/v) FBS • ^3H-Progesterone: Perkin Elmer Life Science, cat# NET-381 (typically around 102 Ci/mmol) • Liquid Scintillation Cocktail: Beckman Coulter, the Ready-Safe™ reagent; cat# 141349 • Tissue Culture Plates: 96 well, clear bottom, white, plates (VWR Part # 29443-150 or Perkin Elmer Part # 3983498)
B. T47D Cell Culture: • T47D cells are maintained in 10% RC media at 37° C. in a 5% CO2/humidified atmosphere and need to be split twice weekly for proper response. Cells are plated in 10% RC the day before binding assay at 50,000 cells per well in the white, clear bottom plates purchased through VWR or Perkin Elmer.
Cells plated the day prior to the assay in white clear bottom plates are used. A master compound plate is set up containing control and test compounds at 20X final desired concentration for the competition binding. A typical dose range of 20X concentrations are (in nM); 200,000; 20,000; 6000; 2000; 600; 200; 20; and 2. Final concentrations are then (in nM); 10,000; 1000; 300; 100; 30; 10; 1; 0.1. Control compounds are typically run 10-fold lower than this and include a 0, or vehicle, control well. A stock of 60 nM ^3H-progesterone (20X) is also prepared at a volume needed of 10 μL per well.
Media on cells are replaced with 180 μL of 5% RC. Ten microliters (10 μL) of 60 nM ^3H-progesterone (for final concentration of 3 nM) is added immediately followed by 10 μL of 20X test or control compounds. Compounds are incubated for 3 hours at 37° C. A time course study found no difference between 2 and 4 hours incubation.
Following incubation, media is carefully removed and cells are washed 3X with 200 μL 5% RC each wash. Fifty microliters of liquid scintillation cocktail is added and the plates are shaken vigorously for a minimum of 15 minutes. Plates are read on the Wallac Microbeta® 1450 plate reader.
D. Analysis of Results: • Square root-transformed data are used for analysis of variance and calculation of IC50. SAS software (SAS Institute, Inc.) is used for all the statistical analysis.
E. Reference Compounds: • Progesterone is used as a reference progestin and RU486 as a reference antiprogestin.

| Compound | IC50 [1] [nM] | IC50 [2] [nM] | melting point [°C] | inhibition at 3 µM ([1]; at 3000 nM, in the presence of 1 nM progesterone) [%] | inhibition at 0.03 µM ([1]; at 30 nM, in the presence of 1 nM progesterone) [%] | inhibition at 0.3 µM ([1]; at 300 nM, in the presence of 1 nM progesterone) [%] |
| --- | --- | --- | --- | --- | --- | --- |
| CC1(C)OC(=O)Nc2ccc(/C(=C/C#N)c3ccccc3)cc21 [Example 6, (2E)-3-(4,4-Dimethyl-2-oxo-1,4-dihydro-2H-3,1-benzoxazin-6-yl)-3-phenylacrylonitrile] | 80.3 | 82.5 | 205 to 206 | – | – | – |
| COC(=O)/C=C(\C)c1ccc2c(c1)C(C)(C)OC(=O)N2 [Example 9, Methyl(2E)-3-(4,4-dimethyl-2-oxo-1,4-dihydro-2H-3,1-benzoxazin-6-yl)but-2-enoate] | 61.8 | 84.8 | 131 to 132 | – | – | – |
| C/C(=C/C#N)c1ccc2c(c1)C(C)(C)OC(=O)N2 [Example 12, (2Z)-3-(4,4-Dimethyl-2-oxo-1,4-dihydro-2H-3,1-benzoxazin-6-yl)but-2-enenitrile] | – | 1390 | 213 to 215 | 25 | – | – |
| C/C(=C\C#N)c1ccc2c(c1)C(C)(C)OC(=O)N2 [Example 13, (2E)-3-(4,4-Dimethyl-2-oxo-1,4-dihydro-2H-3,1-benzoxazin-6-yl)but-2-enenitrile] | 38.2 | 48.1 | 230 to 232 | – | – | – |
| CCC/C(=C\C#N)c1ccc2c(c1)C1(CCCCC1)OC(=O)N2 [Example 20, (2E)-3-(2-Oxo-1,2-dihydrospiro[3,1-benzoxazine-4,1′-cyclohexan]-6-yl)hex-2-enenitrile] | 55.7 | 46.5 | – | – | – | – |
| CCC1(CC)OC(=O)Nc2ccc(/C(C)=C/C#N)cc21 [Example 22, (2E)-3-(4,4-Diethyl-2-oxo-1,4-dihydro-2H-3,1-benzoxazin-6-yl)but-2-enenitrile] | 49.6 | 150 | 159 to 160 | – | – | – |
| CC/C(=C\C#N)c1ccc2c(c1)C(CC)(CC)OC(=O)N2 [Example 23, (2E)-3-(4,4-Diethyl-2-oxo-1,4-dihydro-2H-3,1-benzoxazin-6-yl)pent-2-enenitrile] | 29.2 | 52.8 | 135 to 136 | – | – | – |
| CCC/C(=C\C#N)c1ccc2c(c1)C(CC)(CC)OC(=O)N2 [Example 25, (2E)-3-(4,4-Diethyl-2-oxo-1,4-dihydro-2H-3,1-benzoxazin-6-yl)hex-2-enenitrile] | 16.1 | 49.2 | 121 to 124 | – | – | – |
| CCC1(CC)OC(=O)Nc2ccc(/C(=C/C#N)C(C)C)cc21 [Example 27, (2E)-3-(4,4-Diethyl-2-oxo-1,4-dihydro-2H-3,1-benzoxazin-6-yl)-4-methylpent-2-enenitrile] | 208 | 1420 | 138 to 140 | – | – | – |
| CC/C(=C\C#N)c1ccc2c(c1)C(C)(C)OC(=O)N2 [Example 28, (2E)-3-(4,4-Dimethyl-2-oxo-1,4-dihydro-2H-3,1-benzoxazin-6-yl)pent-2-enenitrile] | – | 89.8 | – | – | 70 | – |
| CCC/C(=C\C#N)c1ccc2c(c1)C(C)(C)OC(=O)N2 [Example 29, (2E)-3-(4,4-Dimethyl-2-oxo-1,4-dihydro-2H-3,1-benzoxazin-6-yl)hex-2-enenitrile] | – | 104 | – | – | – | 84 |
| CC(C)/C(=C\C#N)c1ccc2c(c1)C(C)(C)OC(=O)N2 [Example 30, (2E)-3-(4,4-Dimethyl-2-oxo-1,4-dihydro-2H-3,1-benzoxazin-6-yl)-4-methylpent-2-enenitrile] | 84.6 | 777 | – | – | – | – |
